“And” between values parts separate entries of the source, which are not always exact repeats. Equal values may be shown once.
Legend:
[1] = test system: F21T G4 (human telomeric sequence); assay: FRET melting assay, F21T telomeric G4; type: binding; conditions: G4 0.2 μM, ligand 1 μM
Experimental: Two compounds 2d and 3e were selected and evaluated for their ability to stabilize the 32-mer sequence in the NHE of the human KRAS promoter (KRAS32R)[12], two G4 motifs in the 5′UTR of KRAS mRNA (UTR-1 and UTR-2)[24] and a 21-mer DNA G4 from the human telomeric sequence (F21T). The KRAS32R sequence has been described as forming two G4 structures which exist in equilibrium. One sequence folds into a G4 (Q1) with a Tm of ~55°C that is disrupted on increasing the temperature and then, the full-length 32-mer sequence folds into a new G4 (Q2, Tm of ~72°C)[13]. In our assay, the KRAS32R sequence (in the presence or absence of IQcs) folded in a single G4 structure (Tm ≈ 54°C), as shown by the single inflection for the first derivative of the FRET melting data (Sup. Inf.; Figure S4). This monophasic behaviour was also observed in the presence of TMPyP4[13].
Oligonucleotide sequences were purchased from Eurofins MWG Synthesis GmbH, Germany or STAB VIDA Genomics Lab, Caparica, Lisbon, Portugal. The labelled oligonucleotides used in the FRET assays had attached the donor fluorophore FAM (6-carboxyfluorescein) and the acceptor fluorophore TAMRA (6-carboxytetramethylrhodamine): KRAS21R: 5′-FAM-[…]-TAMRA-3′; KRAS32R: 5′-FAM-[…]-TAMRA-3′; UTR-1: 5′-FAM-GCGGCGGCGGAGG-TAMRA-3′; UTR-2: 5′-FAM-[…]-TAMRA-3; T-Loop:5′-FAM-[…]-TAMRA-3′; F21T: 5′-FAM-[…]-TAMRA-3′. Non-labelled oligonucleotides were used in FRET competition assays and in the spectroscopic studies: ds26: - d(5′-CAATCGGATCGAATT CGATCCGATTG-3′); KRAS21R: 5′-[…]-3′; HT21: 5′-[…]-3′. Each oligonucleotide was initially diluted to a storage solution at 100 μM in nuclease-free water (not DEPC-treated), purchased from Ambion Applied Biosystems UK.
The ability of indolo[3,2-c]quinolines to stabilize DNA sequences was investigated using a Fluorescence Resonance Energy Transfer (FRET) assay as reported elsewhere.

[2] = test system: double-stranded DNA (26ds); assay: Spectrofluorimetric titration with 26ds DNA; type: binding; conditions: for Apparent association constant Ka (26ds): ligand 1 μM, K-cacodylate pH 7.4, 60 mM K+, 25°C; for Hill constant h (26ds): one-site saturation binding Hill slope model
Experimental: To characterize the binding of IQc to DNA structures, spectrofluorimetric titration assays were performed with the non-substituted (2a), mono-alkyldiamine (2d) and di-alkyldiamine (3e) derivatives using un-labelled KRAS21R G4 and 26ds-DNA. […] Their fluorescence intensity was proportional to concentration up to 10 μM. […] The fluorescence titration data (Figure 4) was fitted to the Scatchard model[25] (Figure 4, insets). […] Scatchard plots of 2d and 3e (Figure 4b–c, insets) are all concave-down nonlinear curves, which may denote different positive cooperative binding sites in G4, with more than one equivalent and non-independent binding sites. […] Therefore, association constants for 2d and 3e were obtained from the one-site saturation binding Hill slope model (Figure 4b–c). These are apparent binding constants, i.e. they are macroscopic Ka which reflect the total binding.
Figure 4 Fluorescence data of (a) 2a, (b) 2d, and (c) 3e (1 μM) in K-cacodylate buffer (pH 7.4, containing 60 mM K^+) at 25°C, titrated with KRAS21R and HT21 G4s, and 26ds, fitted to the saturation binding equations and Scatchard model (insets).
Fluorescence data were collected with a λex of 290 nm and a λem around 475 nm for 2d and 3e, and a λex of 275 nm and a λem around 460 for 2a. Test compounds were prepared as 1 mM in HPLC-grade water (10% DMSO) stock solutions. The rest of the dilutions were performed using K-cacodylate buffer (pH = 7.4, containing 60 mM K^+). The G4 single-strand oligonucleotide sequences were initially diluted from the storage solution (100 μM) with K-cacodylate, to a stock solution at 25 μM. The titration data were obtained by adding aliquots of previously annealed G4 (heating to 95°C for 10 min, followed by slow cooling to RT) to a solution of the indolo[3,2-c]quinoline ligand (1 μM) in K-cacocylate buffer at 25°C (additional details in Supplementary Information).
Figure S7. Fluorescence titrations of 1 μM indolo[3,2-c]quinoline 2d (1µM) with KRAS21R G4 and 26ds DNA in K-cacodylate buffer pH 7.4, containing 60 mM K+ at 25 °C.
Concentration of DNA increase from the top to the bottom (grey lines) Excitation […]
Figure S8. Fluorescence titrations of 1 μM indolo[3,2-c]quinoline 3e (1µM) with KRAS21R […]
The titration data obtained were used to construct Scatchard plots with the concentration of bound and free ligand (Cb and Cf, respectively). […]
number of moles of ligand bound to 1 mol of G4 (r = Cb/CDNA) were calculated.
Saturation binding isotherms were represented as Scatchard plots, by plotting r/Cf versus r and evaluated according to the model of McGhee and von Hippel. Dissociation constants were determined by fitting the titration experimental data to one-site saturation binding equation or to one-site saturation binding to the Hill slope equation supplied with the GraphPad PRISM software (GraphPad, Version 5.00, San Diego, CA).
Association constants (Ka) were calculated from dissociation constants (Kd). Scatchard lines represented in the Scatchard plots were calculated from the data fitting to the binding equations (x = 0, y = Fmax/Kd; x = Fmax , y = 0; slope = -Ka). […]

[3] = test system: F21T (DNA, G4) GGGTTAGGGTAGGGTTAGGG; assay: FRET melting; conditions: 60 mM K+; K-cacodylate pH 7.4; 0.2 μM DNA, 1 μM compound; SD ≤ 0.2

Row | Structure (SMILES) | ΔTm F21T [1] [°C] | Apparent association constant Ka (26ds) [2] | Hill constant h (26ds) [2] | ΔTm [3] [°C]
1 | CCN(CC)CCCNc1ccc2c(c1)c1[nH]c3ccccc3c1c[n+]2C [2d] | 17.7 | 2.8e+06 M⁻¹ | 1.5 | 17.7
2 | CCN(CC)CCCNc1ccc2c(c1)[nH]c1c2c[n+](C)c2ccc(NCCCN(CC)CC)cc12.[Cl-] [3e] | 30.7 | 3.2e+06 M⁻¹ | 2.5 | 30.7
3 | Cn1cc2c3ccccc3nc-2c2cc(Br)ccc21 [2a, 2-bromo-5-methyl-indolo[3,2-c]quinoline] | 5.6 | 0.8 × 10^6 M^−1 and 0.8/-- × 10^6 M^−1 |  | 5.6
